Measurements as given in patent publication US5922734A, “6-[triazolyl[3-(trifluoromethyl)phenyl]methyl]-2-quinolines and -quinolinethiones” (Janssen Pharmaceutica, N.V., priority 1994, dated 1999).
Like-named read-outs stand apart in the source and are kept apart here.

Tests used:
[1] = tested on: estradiol undecylate induced keratinization effects; assay: Vaginal Keratinization Test on Ovariectomized Rats; type: in vivo; settings: Rattus norvegicus, po, lowest active dose
Procedure: Ovariectomized rats were injected subcutaneously with a sesame oil solution containing 100 μg of estradiol undecylate in a volume of 0.1 ml per 100 g body weight and control animals were injected with sesame oil. On day one, two and three, test animals were treated once daily with a per os dose of the test compound and control animals with the drug vehicle (PEG 200). One day after the last treatment, the animals were sacrificed and their vaginas were processed for histological evaluation according to the method described in J. Pharmacol. Exp. Ther. 261(2), 773-779 (1992). A dose at which 50% of the tested rats show complete suppression of the estradiol undecylate induced keratinization effects is defined as an active dose.
In said table, the keratinization effect of the present compound number 3 is compared to the structurally closest art-known compounds, the latter being disclosed in EP-0,371,564.

[2] = tested on: retinoic acid (RA) metabolism; assay: Inhibition of retinoic acid (RA) metabolism in MCF-7 human breast cancer cells; type: cell-based; settings: MCF7, 3H-RA substrate, Table 1
Procedure: MCF-7 human breast cancer cells were grown as stock cultures according to art-known protocols. One day before the experiment, RA is added to the stock cultures to stimulate RA-metabolism. At the start of the experiment, cell suspensions were incubated in a tissue culture medium containing ^3 H-RA as the substrate. Different concentrations of the test compound (dissolved in 1% DMSO) were added to the incubation mixtures, and at the end of the incubation, the unmetabolized RA is separated from its polar metabolites. The fraction containing the polar ^3 H-labelled metabolites was collected and counted in a scintillation counter. For each experiment, a control and a blank incubation were run in parallel. The IC50 values listed in table 1 are the concentrations needed to reduce the amount of metabolites to 50% of the control.

[3] = 72 h, 50% of ovariectomized rats show complete suppression, per os once daily, 3 days, Table 1, read-out: Keratinization (LAD in mg/kg)
[4] = keratinization effect, per os, ovariectomized rats, comparison with EP-0,371,564 compounds, Table 2, read-out: LAD

O=c1ccc2cc(C(c3cccc(C(F)(F)F)c3)n3cncn3)ccc2[nH]1 (racemic) [Compound 3, (±)-6-[1H-1,2,4-triazol-1-yl[3-(trifluoromethyl)phenyl]methyl]-2(1H)-quinolinone]
minimal effective dose [1, 3]: 2.5 mg/kg
minimal effective dose [1, 4]: 2.5 mg/kg
IC50 [2]: 851 nM

Cn1c(=O)ccc2cc(C(c3cccc(C(F)(F)F)c3)n3cncn3)ccc21 (racemic) [Compound 12, (±)-1methyl-6-[1H-1,2,4-triazol-1-yl[3-(trifluoromethyl)phenyl]methyl]-2(1H)-quinolinone]
minimal effective dose [1, 3]: 2.5 mg/kg
IC50 [2]: 8590 nM

Nn1c(=O)ccc2cc(C(c3cccc(C(F)(F)F)c3)n3cncn3)ccc21 (racemic) [Compound 20, (±)-(1-amino-6-[1H-1,2,4-triazol-1-yl-[3-(trifluoromethyl)phenyl]methyl]-2(1H)-quinolinone]
minimal effective dose [1, 3]: 5 mg/kg
IC50 [2]: 1470 nM

Cn1c(=S)ccc2cc(C(c3cccc(C(F)(F)F)c3)n3cncn3)ccc21 (racemic) [Compound 21, (±)-1-methyl-6-[1H-1,2,4-triazol-1-yl[3-(trifluoromethyl]phenyl]methyl]-2(1H)-quinolinethione]
minimal effective dose [1, 3]: 5 mg/kg
IC50 [2]: 4370 nM

O=c1ccc2cc([C@H](c3cccc(C(F)(F)F)c3)n3cncn3)ccc2[nH]1 [Compound 1, (-)-(R)-6-[1H-1,2,4-triazol-1-yl[3-(trifluoromethyl)phenyl]methyl]-2(1H)-quinolinone]
minimal effective dose [1, 3]: 1.25 mg/kg
IC50 [2]: 850 nM

O=c1ccc2cc([C@@H](c3cccc(C(F)(F)F)c3)n3cncn3)ccc2[nH]1 [Compound 2]
minimal effective dose [1, 3]: > 40 mg/kg
IC50 [2]: 3850 nM

CC(c1cccc(C(F)(F)F)c1)(c1ccc2[nH]c(=O)ccc2c1)n1cncn1 (centres unmarked) [Compound 4]
minimal effective dose [1, 3]: 5 mg/kg
IC50 [2]: 510 nM

O=c1ccc2cc(C(F)(c3cccc(C(F)(F)F)c3)n3cncn3)ccc2[nH]1 (centres unmarked) [Compound 5]
minimal effective dose [1, 3]: 5 mg/kg
IC50 [2]: > 10000 nM

CCC(c1cccc(C(F)(F)F)c1)(c1ccc2[nH]c(=O)ccc2c1)n1cncn1 (centres unmarked) [Compound 6]
minimal effective dose [1, 3]: 10 mg/kg
IC50 [2]: 18.2 nM

CC(C)C(c1cccc(C(F)(F)F)c1)(c1ccc2[nH]c(=O)ccc2c1)n1cncn1 (centres unmarked) [Compound 7]
minimal effective dose [1, 3]: > 20 mg/kg
IC50 [2]: 270 nM

Cc1cc(C(c2cccc(C(F)(F)F)c2)n2cncn2)cc2ccc(=O)[nH]c12 (centres unmarked) [Compound 9]
minimal effective dose [1, 3]: 10 mg/kg
IC50 [2]: 706 nM

O=c1ccc2c(Cl)c(C(c3cccc(C(F)(F)F)c3)n3cncn3)ccc2[nH]1 (centres unmarked) [Compound 10]
minimal effective dose [1, 3]: 10 mg/kg
IC50 [2]: 764 nM

O=c1ccc2cc(C(c3cccc(F)c3)n3ccnc3)ccc2[nH]1 (centres unmarked) [Compound 11-a, reference compound]
minimal effective dose [1, 4]: 40 mg/kg

O=c1ccc2cc(C(c3cccc(C(F)(F)F)c3)n3cncn3)cc(F)c2[nH]1 (centres unmarked) [Compound 11]
minimal effective dose [1, 3]: 10 mg/kg
IC50 [2]: 154 nM

Cn1c(=O)ccc2cc(C(F)(c3cccc(C(F)(F)F)c3)n3cncn3)ccc21 (centres unmarked) [Compound 13]
IC50 [2]: 10.2 nM

Cn1c(=O)ccc2cc(C(C)(c3cccc(C(F)(F)F)c3)n3cncn3)ccc21 (centres unmarked) [Compound 14]
minimal effective dose [1, 3]: 5 mg/kg
IC50 [2]: 3.25 nM

FC(F)(F)c1cccc(C(c2ccc3ncccc3c2)n2cncn2)c1 (centres unmarked) [Compound 66-a, reference compound]
minimal effective dose [1, 4]: 10 mg/kg
